Results reported in the supplement of paper PMC10307832.

Tests used:
Assay in all cases: relative viability (nuclei count vs DMSO), 5 days (fraction); higher = more cells survive
[1] = test system: NCI-H1793
Procedure, shortened: (§1)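 For relative viability, nuclei counts in treated wells were divided by those in vehicle wells. Lung cancer cell lines had been pin-tool dosed in 1536-well plates the day after seeding and cultured for 5 days, then fixed and stained in one step (final 0.05% Triton X-100, 1% formaldehyde, 1 ug/ml Hoechst) and imaged at 4×. Doses were one drug alone or a fixed anchor-drug dose plus five library-drug doses (not always all listed) in √10 steps, and values are duplicate-plate medians.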

[2] = test system: EPLC-272H
Procedure, shortened: as §1

[3] = test system: ABC-1
Procedure, shortened: as §1

[4] = test system: LCLC-103H
Procedure, shortened: as §1

[5] = test system: NCI-H3122
Procedure, shortened: as §1

[6] = test system: ChaGo-K-1
Procedure, shortened: as §1

[7] = test system: NCI-H2085
Procedure, shortened: as §1

[8] = test system: HCC-15
Procedure, shortened: as §1

[9] = test system: COR-L23
Procedure, shortened: as §1

[10] = test system: NCI-H2228
Procedure, shortened: as §1

[11] = test system: HCC-827
Procedure, shortened: as §1

[12] = test system: NCI-H2347
Procedure, shortened: as §1

[13] = test system: HCC-366
Procedure, shortened: as §1

[14] = test system: NCI-H2023
Procedure, shortened: as §1

[15] = test system: NCI-H1944
Procedure, shortened: as §1

[16] = test system: NCI-H1355
Procedure, shortened: as §1

[17] = test system: PC-14
Procedure, shortened: as §1

[18] = test system: SW 1573
Procedure, shortened: as §1

[19] = test system: NCI-H2009
Procedure, shortened: as §1

[20] = test system: NCI-H2405
Procedure, shortened: as §1

[21] = test system: NCI-H1734
Procedure, shortened: as §1

[22] = test system: HCC-44
Procedure, shortened: as §1

Cc1cn(-c2cc(NC(=O)c3ccc(C)c(Nc4nccc(-c5cccnc5)n4)c3)cc(C(F)(F)F)c2)cn1 [Nilotinib] + N=C(N)NC(=N)NCCc1ccccc1 [Phenformin] (partner 250 µM)
relative viability ([1]; first compound 0.001 µM): 0.36 | relative viability ([1]; first compound 0.003162 µM): 0.363 | relative viability ([1]; first compound 0.01 µM): 0.357 | relative viability ([1]; first compound 0.03162 µM): 0.196 | relative viability ([1]; first compound 0.1 µM): 0.232 | relative viability ([2]; first compound 0.001 µM): 0.305 | relative viability ([2]; first compound 0.003162 µM): 0.283 | relative viability ([2]; first compound 0.01 µM): 0.262 | relative viability ([2]; first compound 0.03162 µM): 0.234 | relative viability ([2]; first compound 0.1 µM): 0.298 | relative viability ([3]; first compound 0.001 µM): 0.219 | relative viability ([3]; first compound 0.003162 µM): 0.243 | relative viability ([3]; first compound 0.01 µM): 0.259 | relative viability ([3]; first compound 0.03162 µM): 0.249 | relative viability ([3]; first compound 0.1 µM): 0.264 | relative viability ([4]; first compound 0.001 µM): 0.326 | relative viability ([4]; first compound 0.003162 µM): 0.307 | relative viability ([4]; first compound 0.01 µM): 0.338 | relative viability ([4]; first compound 0.03162 µM): 0.333 | relative viability ([4]; first compound 0.1 µM): 0.288 | relative viability ([5]; first compound 0.001 µM): 0.36 | relative viability ([5]; first compound 0.003162 µM): 0.375 | relative viability ([5]; first compound 0.01 µM): 0.341 | relative viability ([5]; first compound 0.03162 µM): 0.352 | relative viability ([5]; first compound 0.1 µM): 0.309 | relative viability ([6]; first compound 0.001 µM): 0.469 | relative viability ([6]; first compound 0.003162 µM): 0.442 | relative viability ([6]; first compound 0.01 µM): 0.473 | relative viability ([6]; first compound 0.03162 µM): 0.394 | relative viability ([6]; first compound 0.1 µM): 0.315 | relative viability ([7]; first compound 0.001 µM): 0.76 | relative viability ([7]; first compound 0.003162 µM): 0.749 | relative viability ([7]; first compound 0.01 µM): 0.769 | relative viability ([7]; first compound 0.03162 µM): 0.493 | relative viability ([7]; first compound 0.1 µM): 0.581 | relative viability ([8]; first compound 0.001 µM): 0.436 | relative viability ([8]; first compound 0.003162 µM): 0.598 | relative viability ([8]; first compound 0.01 µM): 0.508 | relative viability ([8]; first compound 0.03162 µM): 0.331 | relative viability ([8]; first compound 0.1 µM): 0.404 | relative viability ([9]; first compound 0.001 µM): 0.448 | relative viability ([9]; first compound 0.003162 µM): 0.52 | relative viability ([9]; first compound 0.01 µM): 0.591 | relative viability ([9]; first compound 0.03162 µM): 0.42 | relative viability ([9]; first compound 0.1 µM): 0.45 | relative viability ([10]; first compound 0.003162 µM): 0.388 | relative viability ([10]; first compound 0.01 µM): 0.383 | relative viability ([10]; first compound 0.03162 µM): 0.259 | relative viability ([10]; first compound 0.1 µM): 0.278 | relative viability ([11]; first compound 0.003162 µM): 0.436 | relative viability ([11]; first compound 0.01 µM): 0.384 | relative viability ([11]; first compound 0.03162 µM): 0.438 | relative viability ([11]; first compound 0.1 µM): 0.384 | relative viability ([12]; first compound 0.001 µM): 0.386 | relative viability ([12]; first compound 0.003162 µM): 0.308 | relative viability ([12]; first compound 0.01 µM): 0.551 | relative viability ([12]; first compound 0.03162 µM): 0.277 | relative viability ([12]; first compound 0.1 µM): 0.327 | relative viability ([13]; first compound 0.001 µM): 0.623 | relative viability ([13]; first compound 0.003162 µM): 0.584 | relative viability ([13]; first compound 0.01 µM): 0.655 | relative viability ([13]; first compound 0.03162 µM): 0.257 | relative viability ([13]; first compound 0.1 µM): 0.555 | relative viability ([14]; first compound 0.001 µM): 0.461 | relative viability ([14]; first compound 0.003162 µM): 0.455 | relative viability ([14]; first compound 0.01 µM): 0.571 | relative viability ([14]; first compound 0.03162 µM): 0.325 | relative viability ([14]; first compound 0.1 µM): 0.361 | relative viability ([15]; first compound 0.001 µM): 0.193 | relative viability ([15]; first compound 0.003162 µM): 0.216 | relative viability ([15]; first compound 0.01 µM): 0.222 | relative viability ([15]; first compound 0.03162 µM): 0.181 | relative viability ([16]; first compound 0.001 µM): 0.451 | relative viability ([16]; first compound 0.003162 µM): 0.426 | relative viability ([16]; first compound 0.01 µM): 0.401 | relative viability ([16]; first compound 0.03162 µM): 0.361 | relative viability ([16]; first compound 0.1 µM): 0.424 | relative viability ([17]; first compound 0.001 µM): 0.573 | relative viability ([17]; first compound 0.003162 µM): 0.538 | relative viability ([17]; first compound 0.01 µM): 0.546 | relative viability ([17]; first compound 0.03162 µM): 0.459 | relative viability ([17]; first compound 0.1 µM): 0.542 | relative viability ([18]; first compound 0.001 µM): 0.405 | relative viability ([18]; first compound 0.003162 µM): 0.445 | relative viability ([18]; first compound 0.01 µM): 0.412 | relative viability ([18]; first compound 0.03162 µM): 0.179 | relative viability ([18]; first compound 0.1 µM): 0.289 | relative viability ([19]; first compound 0.001 µM): 0.417 | relative viability ([19]; first compound 0.003162 µM): 0.464 | relative viability ([19]; first compound 0.01 µM): 0.463 | relative viability ([19]; first compound 0.03162 µM): 0.387 | relative viability ([19]; first compound 0.1 µM): 0.338 | relative viability ([20]; first compound 0.001 µM): 0.381 | relative viability ([20]; first compound 0.003162 µM): 0.357 | relative viability ([20]; first compound 0.01 µM): 0.397 | relative viability ([20]; first compound 0.03162 µM): 0.356 | relative viability ([20]; first compound 0.1 µM): 0.346 | relative viability ([21]; first compound 0.001 µM): 0.359 | relative viability ([21]; first compound 0.003162 µM): 0.396 | relative viability ([21]; first compound 0.01 µM): 0.368 | relative viability ([21]; first compound 0.03162 µM): 0.27 | relative viability ([21]; first compound 0.1 µM): 0.3 | relative viability ([22]; first compound 0.001 µM): 0.154 | relative viability ([22]; first compound 0.003162 µM): 0.145 | relative viability ([22]; first compound 0.01 µM): 0.186 | relative viability ([22]; first compound 0.03162 µM): 0.179 | relative viability ([22]; first compound 0.1 µM): 0.166
